pIC50: −log10 of the molar value.
target: T1, human LCE (Homo sapiens, UniProt Q9H5J4); assay: LCE enzyme activity-inhibitory test; type: biochemical; settings: [14C]-malonyl CoA / palmitoyl CoA substrate, 37° C., 90 minutes
T1 sequence (Q9H5J4 1-265): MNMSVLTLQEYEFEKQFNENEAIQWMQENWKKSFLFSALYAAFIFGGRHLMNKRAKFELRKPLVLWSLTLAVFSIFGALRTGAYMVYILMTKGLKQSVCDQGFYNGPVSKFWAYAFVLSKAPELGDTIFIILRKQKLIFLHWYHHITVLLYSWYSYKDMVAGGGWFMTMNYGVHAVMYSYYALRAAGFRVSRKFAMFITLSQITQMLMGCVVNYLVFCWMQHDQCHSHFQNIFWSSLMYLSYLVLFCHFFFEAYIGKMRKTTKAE
Outline: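 Human LCE (100 μg/mL in enzyme solution) was incubated 90 min at 37 °C in 100 mM potassium phosphate pH 6.5 with palmitoyl CoA, malonyl CoA, [14C]-malonyl CoA, rotenone and fatty acid-free BSA. Acid-stopped, hydrolyzed products were captured on GF/C filters and counted by scintillation. Inhibition was calculated against DMSO control.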

Compound	pIC50
CC(C)Oc1ccc(NC(=O)c2cccc(S(=O)(=O)C3CCCCC3)c2)cc1 [Example 144, 3-(Cyclohexylsulfonyl)-N-(4-isopropoxyphenyl)benzamide]	7.13
COc1ccccc1NC(=O)c1cccc(S(=O)(=O)C2CCCCC2)c1 [Example 145, 3-(Cyclohexylsulfonyl)-N-(2-methoxyphenyl)benzamide]	6.68
COc1ccc(NC(=O)c2cccc(S(=O)(=O)C3CCCCC3)c2)cc1 [Example 146, 3-(Cyclohexylsulfonyl)-N-(4-methoxyphenyl)benzamide]	5.96
COc1cccnc1NC(=O)c1cccc(S(=O)(=O)C2CCCCC2)c1 [Example 147, 3-(Cyclohexylsulfonyl)-N-(3-methoxypyridin-2-yl)benzamide]	6.72
COc1ccc(NC(=O)c2cc(S(=O)(=O)N3CCCCC3)ccc2OC)cc1 [Example 149, 2-Methoxy-N-(4-methoxyphenyl)-5-(piperidin-1-ylsulfonyl)benzamide]	6.00
COc1ccc(S(=O)(=O)N2CCCCC2)cc1C(=O)Nc1ccc(C(C)C)cc1 [Example 150, N-(4-isopropylphenyl)-2-methoxy-5-(piperidin-1-ylsulfonyl)benzamide]	7.51
CC(C)Oc1ccc(NC(=O)c2cc(S(=O)(=O)N3CCCCC3)ccc2O)cc1 [Example 151, 2-Hydroxy-N-(4-isopropoxyphenyl)-5-(piperidin-1-ylsulfonyl)benzamide]	5.44
CCOc1ccc(S(=O)(=O)N2CCCCC2)cc1C(=O)Nc1ccc(OC(C)C)cc1 [Example 152, 2-Ethoxy-N-(4-isopropoxyphenyl)-5-(piperidin-1-ylsulfonyl)benzamide]	6.74
CC(C)Oc1ccc(NC(=O)c2cc(S(=O)(=O)N3CCCCC3)ccc2OCCC#N)cc1 [Example 153, 2-(Cyanoethoxy)-N-(4-isopropoxyphenyl)-5-(piperidin-1-ylsulfonyl)benzamide]	6.38
CC(C)Oc1ccc(NC(=O)c2cc(S(=O)(=O)N3CCCCC3)ccc2OCC(=O)O)cc1 [Example 154, [2-{[(4-Isopropoxyphenyl)amino]carbonyl}-4-(piperidin-1-ylsulfonyl)phenoxy]acetic acid]	6.52

Continued, values first:

pIC50	Compound
5.24	COc1ccc(C(=O)Nc2ccc(C(C)C)cc2)cc1S(=O)(=O)N1CCCCC1 [Example 155, N-(4-isopropylphenyl)-4-methoxy-3-(piperidin-1-ylsulfonyl)benzamide]
6.82	COc1ccc(S(=O)(=O)N2CCCCC2)cc1C(=O)Nc1ncccc1OC [Example 156, 2-Methoxy-N-(3-methoxypyridin-2-yl)-5-(piperidin-1-ylsulfonyl)benzamide]
5.85	CC(C)c1ccc(NC(=O)c2cccc(S(=O)(=O)c3ccccc3)n2)cc1 [Example 157, N-(4-isopropylphenyl)-6-(phenylsulfonyl)pyridine-2-carboxamide]
5.47	CC(C)c1ccc(NC(=O)c2cncc(S(=O)(=O)c3ccccc3)c2)cc1 [Example 158, N-(4-isopropylphenyl)-5-(phenylsulfonyl)nicotinamide]
6.64	CC(C)Oc1ccc(C(=O)NCc2cccc(S(=O)(=O)N3CCCCC3)c2)cc1 [Example 159, 4-Isopropoxy-N-[3-(piperidin-1-ylsulfonyl)benzyl]benzamide]
6.89	CC(C)Oc1ccc(NC(=O)Cc2cccc(S(=O)(=O)N3CCCCC3)c2)cc1 [Example 160, N-(4-isopropoxyphenyl)-2-[3-(piperidin-1-ylsulfonyl)phenyl]acetamide]
5.32	CC(C)Oc1ccc(C(=O)NCCc2cccc(S(=O)(=O)N3CCCCC3)c2)cc1 [Example 161, 4-Isopropoxy-N-{2-[3-(piperidin-1-ylsulfonyl)phenyl]ethyl}benzamide]
5.82	CC(C)Oc1ccc(NC(=O)CCc2cccc(S(=O)(=O)N3CCCCC3)c2)cc1 [Example 162, N-(4-isopropoxyphenyl)-3-[3-(piperidin-1-ylsulfonyl)phenyl]propanamide]

From patent publication US8420823B2, “Long-chain fatty acyl elongase inhibitor comprising arylsulfonyl derivative as active ingredient” (MSD K.K., priority 2008, dated 2013)
